# Patent US6413959B1, “Method of treating depression with arylglycinamide derivatives” (Boehringer Ingelheim KG, priority 1995, dated 2002)
# Structures can show the parent of a compound that is named as a salt.
# Key:
# [1] = target: T1, NK1-receptor (substance P-receptor) (Homo sapiens, UniProt P25103); assay: NK1-receptor affinity, displacement of 125I-labelled substance P on IM-9 cells; assay type: binding; conditions: human lymphoblastoma cells (IM-9) with cloned NK1-receptors
# T1 construct: expressed in transfected cells; host or cells: IM-9 human lymphoblastoma cells
# T1 sequence (P25103 whole entry): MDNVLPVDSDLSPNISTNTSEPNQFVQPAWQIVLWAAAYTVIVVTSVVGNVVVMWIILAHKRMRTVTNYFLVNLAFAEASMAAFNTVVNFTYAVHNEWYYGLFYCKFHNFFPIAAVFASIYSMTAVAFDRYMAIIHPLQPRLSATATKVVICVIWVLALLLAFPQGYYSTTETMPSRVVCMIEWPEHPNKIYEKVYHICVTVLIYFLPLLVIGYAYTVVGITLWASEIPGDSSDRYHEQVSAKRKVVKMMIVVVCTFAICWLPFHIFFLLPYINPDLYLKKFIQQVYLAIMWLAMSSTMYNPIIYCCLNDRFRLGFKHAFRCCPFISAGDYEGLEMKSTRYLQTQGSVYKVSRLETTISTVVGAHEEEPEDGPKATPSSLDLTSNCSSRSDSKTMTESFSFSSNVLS
SMILES,melting point,Ki [1]
O=C(NCc1cc(C(F)(F)F)cc(C(F)(F)F)c1)C(c1ccccc1)N1CCC2(CC1)C(=O)NCN2c1ccccc1 (centres unmarked),205 to 210 °C,
Cl.O=C(NCc1cc(C(F)(F)F)cc(C(F)(F)F)c1)C(c1ccccc1)N1CCC(N2C(=O)CCC2=O)CC1 (centres unmarked),110 to 115 °C,
Cl.O=C(NCc1cc(C(F)(F)F)cc(C(F)(F)F)c1)C(c1ccccc1)N1CCC(N(C(=O)c2ccccc2)c2ccccn2)CC1 (centres unmarked),145 to 151 °C,
Cc1nc2ccccc2n1C1CCN(C(C(=O)NCc2cc(C(F)(F)F)cc(C(F)(F)F)c2)c2ccccc2)CC1 (centres unmarked),107 to 111 °C,
CN(CCc1cc(C(F)(F)F)cc(C(F)(F)F)c1)C(=O)C(c1ccccc1)N1CCC(C(N)=O)(c2ccccc2)CC1.Cl (centres unmarked),127 to 137 °C,
CN(CCc1cc(C(F)(F)F)cc(C(F)(F)F)c1)C(=O)C(c1ccccc1)N1CCC(c2ccccc2)CC1.Cl (centres unmarked),106 to 110 °C,
CN(CCc1cc(C(F)(F)F)cc(C(F)(F)F)c1)C(=O)C(c1ccccc1)N1CCC2(CC1)C(=O)NCN2c1ccccc1 (centres unmarked),265 to 268 °C (dec.),
CN(CCc1cc(C(F)(F)F)cc(C(F)(F)F)c1)C(=O)C(c1ccccc1)N1CCC(n2c(=O)[nH]c3ccccc32)CC1 (centres unmarked),177 to 187 °C,
O=C(NCc1cc(C(F)(F)F)cc(C(F)(F)F)c1)C(c1ccccc1)N1CCC(N(C(=O)c2ccccc2)c2ccccc2)CC1 (centres unmarked),102 to 105 °C,
CN(CCc1cc(C(F)(F)F)cc(C(F)(F)F)c1)C(=O)C(c1ccccc1)N1CCC(N2CCCCC2)CC1 (centres unmarked) (as salt: hydrochloride) [Example 33],> 240 °C,
"O=C(NCc1cc(C(F)(F)F)cc(C(F)(F)F)c1)C(c1ccccc1)N1CCN(C2CCCCC2)CC1 (racemic) [Example 1, (R,S)-1-cyclohexyl-piperazinyl-4-[2-phenylacetic acid-N-(3,5-bis-trifluoromethylbenzyl)amide]]",124 to 129 °C,
"CCC(=O)NC1CCN(C(C(=O)NCc2cc(C(F)(F)F)cc(C(F)(F)F)c2)c2ccccc2)CC1 (racemic) [Example 2, (R,S)-4-propionylamino-1-[2-phenylacetic acid-N(3,5-bis-trifluoromethyl-benzyl)-amide]-piperidine]",189 to 191 °C,
O=C(NCCc1cc(C(F)(F)F)cc(C(F)(F)F)c1)C(c1ccccc1)N1CCN(C2CCCCC2)CC1 (centres unmarked) [Example 3],235 to 238 °C,1.4 nM
CN(Cc1cc(C(F)(F)F)cc(C(F)(F)F)c1)C(=O)C(c1ccccc1)N1CCN(C2CCCCC2)CC1 (centres unmarked) [Example 4],> 240 °C (dec.),1 nM
O=C(NCc1cc(C(F)(F)F)cc(C(F)(F)F)c1)C(c1ccccc1)N1CCN(CCC2CCCCC2)CC1 (centres unmarked) [Example 6],97 to 99 °C,
O=C(NCc1cc(C(F)(F)F)cc(C(F)(F)F)c1)C(c1ccccc1)N1CCC(N2CCCCC2)CC1 (centres unmarked) [Example 7],> 240 °C (dec.),
O=C(Nc1ccccc1)NC1CCN(C(C(=O)NCc2cc(C(F)(F)F)cc(C(F)(F)F)c2)c2ccccc2)CC1 (centres unmarked) [Example 10],218 to 223 °C,
NC(=O)C1(N2CCCCC2)CCN(C(C(=O)NCc2cc(C(F)(F)F)cc(C(F)(F)F)c2)c2ccccc2)CC1 (centres unmarked) [Example 11],> 220 °C (dec.),
CC(=O)N1CCN(C2CCN(C(C(=O)NCc3cc(C(F)(F)F)cc(C(F)(F)F)c3)c3ccccc3)CC2)C1=O (centres unmarked) [Example 13],87 to 95 °C,
O=C(NCc1cc(C(F)(F)F)cc(C(F)(F)F)c1)C(c1ccccc1)N1CCC(Nc2ccccn2)CC1 (centres unmarked) [Example 14],164 to 166 °C,

SMILES,melting point,Ki [1]
O=C(NCc1cc(C(F)(F)F)cc(C(F)(F)F)c1)C(c1ccccc1)N1CCC(n2c(=O)[nH]c3cccnc32)CC1 (centres unmarked) [Example 15],208 to 210 °C,
O=C(NCCCc1ccc(C(F)(F)F)cc1C(F)(F)F)C(c1ccccc1)N1CCN(C2CCCCC2)CC1 (centres unmarked) [Example 17],118 to 123 °C,
O=C(NCc1cc(C(F)(F)F)cc(C(F)(F)F)c1)C(c1ccccc1)N1CCN(CCC2CC2)CC1 (centres unmarked) [Example 18],134 to 136 °C,
O=C(Nc1ccccc1)C1CCN(C(C(=O)NCc2cc(C(F)(F)F)cc(C(F)(F)F)c2)c2ccccc2)CC1 (centres unmarked) [Example 19],> 240 °C (dec.),
O=C(NC1CCN(C(C(=O)NCc2cc(C(F)(F)F)cc(C(F)(F)F)c2)c2ccccc2)CC1)c1ccccc1 (centres unmarked) [Example 20],180 to 185 °C,
O=C(NCc1cc(C(F)(F)F)cc(C(F)(F)F)c1)C(c1ccc(Br)cc1)N1CCN(C2CCCCC2)CC1 (centres unmarked) [Example 21],228 to 232 °C,
O=C(O)CN(Cc1cc(C(F)(F)F)cc(C(F)(F)F)c1)C(=O)C(c1ccccc1)N1CCN(C2CCCCC2)CC1 (centres unmarked) [Example 22],70 to 73 °C,
O=C(NCc1cc(C(F)(F)F)cc(C(F)(F)F)c1)C(c1ccc(Cl)c(Cl)c1)N1CCN(C2CCCCC2)CC1 (centres unmarked) [Example 23],248 to 254 °C,
O=C(NCc1cc(C(F)(F)F)cc(C(F)(F)F)c1)C(c1cc(C(F)(F)F)cc(C(F)(F)F)c1)N1CCN(C2CCCCC2)CC1 (centres unmarked) [Example 24],210 °C,
O=C(NCCc1cc(C(F)(F)F)cc(C(F)(F)F)c1)C(c1ccccc1)N1CCC(N2CCCCC2)CC1 (centres unmarked) [Example 25],192 to 199 °C,
O=C(NCc1cc(C(F)(F)F)cc(C(F)(F)F)c1)C(c1ccc(Cl)cc1)N1CCN(C2CCCCC2)CC1 (centres unmarked) [Example 26],112 to 118 °C,
O=C(NCc1cc(C(F)(F)F)cc(C(F)(F)F)c1)C(c1cccc(Br)c1)N1CCN(C2CCCCC2)CC1 (centres unmarked) [Example 27],124 to 127 °C,
O=C(NCc1cc(C(F)(F)F)cc(C(F)(F)F)c1)C(c1ccccc1Br)N1CCN(C2CCCCC2)CC1 (centres unmarked) [Example 28],118 to 120 °C,
O=C(NCc1cc(C(F)(F)F)cc(C(F)(F)F)c1)C(c1ccccc1Cl)N1CCN(C2CCCCC2)CC1 (centres unmarked) [Example 29],120 to 122 °C,
O=C(NCc1cc(C(F)(F)F)cc(C(F)(F)F)c1)C(c1cccc(Cl)c1)N1CCN(C2CCCCC2)CC1 (centres unmarked) [Example 30],> 240 °C,
O=C(NCc1cc(C(F)(F)F)cc(C(F)(F)F)c1)C(c1ccc(F)cc1)N1CCN(C2CCCCC2)CC1 (centres unmarked) [Example 31],> 240 °C,
CN(CCc1cc(C(F)(F)F)cc(C(F)(F)F)c1)C(=O)C(c1ccccc1)N1CCC(N2CCCCC2)CC1 (centres unmarked) [Example 33],,1.3 nM
O=C(NCCc1cc(C(F)(F)F)cc(C(F)(F)F)c1)C(c1cccc2ccccc12)N1CCN(C2CCCCC2)CC1 (centres unmarked) [Example 38],155 to 172 °C,
COc1ccccc1C(C(=O)NCc1cc(C(F)(F)F)cc(C(F)(F)F)c1)N1CCN(C2CCCCC2)CC1 (centres unmarked) [Example 42],142 to 150 °C,
CN(CCc1cc(C(F)(F)F)cc(C(F)(F)F)c1)C(=O)C(c1ccccc1)N1CCC(N2CCCC2)CC1 (centres unmarked) [Example 45],,1.6 nM

SMILES,melting point,Ki [1]
CN(CCc1cc(C(F)(F)F)cc(C(F)(F)F)c1)C(=O)C(c1ccccc1)N1CCC(N2CCOCC2)CC1 (centres unmarked) [Example 46],,1.4 nM
CN(CCc1cc(C(F)(F)F)cc(C(F)(F)F)c1)C(=O)C(c1ccccc1)N1CCC(N2CCCC2)CC1 (centres unmarked) [Example 52],133 to 143 °C,1.1 nM
CN(CCc1cc(C(F)(F)F)cc(C(F)(F)F)c1)C(=O)C(c1ccccc1)N1CCN(C2CCCCCC2)CC1 (centres unmarked) [Example 53],110 to 120 °C,2.3 nM
CN(CCc1cc(C(F)(F)F)cc(C(F)(F)F)c1)C(=O)C(c1ccc(Cl)c(Cl)c1)N1CCN(C2CCCCC2)CC1 (centres unmarked) [Example 58],212 to 216 °C (dec.),6.4 nM
CN(CCc1cc(C(F)(F)F)cc(C(F)(F)F)c1)C(=O)C(c1ccc(Cl)c(Cl)c1)N1CCC(N2CCCCC2)CC1 (centres unmarked) [Example 59],244 to 246 °C (dec.),4.2 nM
CN(CCc1cc(C(F)(F)F)cc(C(F)(F)F)c1)C(=O)C(c1ccccc1)N1CCN(c2ccccc2)CC1 (centres unmarked) [Example 60],113 to 123 °C,
O=C(NCCc1cc(C(F)(F)F)cc(C(F)(F)F)c1)C(c1ccccc1Br)N1CCN(C2CCCCC2)CC1 (centres unmarked) [Example 62],210 to 218 °C,
O=C(NCCc1cc(C(F)(F)F)cc(C(F)(F)F)c1)C(c1ccccc1Cl)N1CCN(C2CCCCC2)CC1 (centres unmarked) [Example 63],215 to 224 °C,
COc1ccccc1C(C(=O)NCCc1cc(C(F)(F)F)cc(C(F)(F)F)c1)N1CCN(C2CCCCC2)CC1 (centres unmarked) [Example 64],85 to 92 °C,
CN(CCc1cc(C(F)(F)F)cc(C(F)(F)F)c1)C(=O)C(c1ccccc1)N1CCN(CCc2ccccc2)CC1 (centres unmarked) [Example 65],148 to 156 °C,9.2 nM
CN(CCc1cc(C(F)(F)F)cc(C(F)(F)F)c1)C(=O)C(c1ccccc1)N1CCN(CC2CC2)CC1 (centres unmarked) [Example 66],113 to 117 °C (dec.),1.4 nM
CN(CCc1cc(C(F)(F)F)cc(C(F)(F)F)c1)C(=O)C(c1ccccc1)N1CCN(C2CCC2)CC1 (centres unmarked) [Example 68],236 to 238 °C (dec.),1.5 nM
COc1ccc(C(C(=O)N(C)CCc2cc(C(F)(F)F)cc(C(F)(F)F)c2)N2CCN(C3CCCCC3)CC2)cc1OC (centres unmarked) [Example 70],123 to 133 °C (dec.),2.8 nM
CN(CCc1cc(C(F)(F)F)cc(C(F)(F)F)c1)C(=O)C(c1ccc2c(c1)OCO2)N1CCN(C2CCCCC2)CC1 (centres unmarked) [Example 71],87 to 97 °C,2.1 nM
CC(C)N(CCc1cc(C(F)(F)F)cc(C(F)(F)F)c1)C(=O)C(c1ccccc1)N1CCC(N2CCCCC2)CC1 (centres unmarked) [Example 72],,6.8 nM
CCN(CCc1cc(C(F)(F)F)cc(C(F)(F)F)c1)C(=O)C(c1ccccc1)N1CCC(N2CCCCC2)CC1 (centres unmarked) [Example 73],,1.7 nM
CN(CCc1ccc(C(F)(F)F)cc1C(F)(F)F)C(=O)C(c1ccccc1)N1CCC(N2CCCCC2)CC1 (centres unmarked) [Example 74],,11.8 nM
CN(CCc1cc(C(F)(F)F)cc(C(F)(F)F)c1)C(=O)C(c1ccccc1)N1CCC(C#N)(c2ccccc2)CC1.Cl (centres unmarked) [Example 75],91 to 98 °C,180 nM
O=C(C(c1ccccc1)N1CCC(N2CCCCC2)CC1)N(CCc1cc(C(F)(F)F)cc(C(F)(F)F)c1)Cc1ccccc1 (centres unmarked) [Example 76],,7 nM
